From ChEMBL document CHEMBL1151877, “Examination of halogen substituent effects on HIV-1 integrase inhibitors derived from 2,3-dihydro-6,7-dihydroxy-1H-isoindol-1-ones and 4,5-dihydroxy-1H-isoindole-1,3(2H)-diones” (Bioorg Med Chem Lett, 2009)

What was measured:
[1] = molecular target: T1, Human immunodeficiency virus type 1 integrase (Human immunodeficiency virus 1, UniProt Q7ZJM1); test: Inhibition of HIV1 integrase 3'-processing activity in presence of magnesium
[2] = molecular target: T1, Human immunodeficiency virus type 1 integrase; test: Inhibition of HIV1 integrase strand transfer activity in presence of magnesium
[3] = test system: Human immunodeficiency virus 1; test: Antiviral activity against VSV-g-pseudotyped HIV1 assessed as inhibition of viral infection in human HOS cells pretreated for 3 hrs before viral infection by luciferase reporter gene assay; type: functional, organism-based; conditions: Human immunodeficiency virus 1, HOS
HOS = test: Cytotoxicity against human HOS cells; type: cell-based
[4] = molecular target: Human immunodeficiency virus type 1 integrase (Human immunodeficiency virus 1) (UniProt Q7ZJM1); test: Selectivity ratio of IC50 for HIV1 integrase strand transfer activity to IC50 for HIV1 integrase 3'-processing activity
Chain of Human immunodeficiency virus type 1 integrase (Human immunodeficiency virus 1) (Q7ZJM1 as listed by the source): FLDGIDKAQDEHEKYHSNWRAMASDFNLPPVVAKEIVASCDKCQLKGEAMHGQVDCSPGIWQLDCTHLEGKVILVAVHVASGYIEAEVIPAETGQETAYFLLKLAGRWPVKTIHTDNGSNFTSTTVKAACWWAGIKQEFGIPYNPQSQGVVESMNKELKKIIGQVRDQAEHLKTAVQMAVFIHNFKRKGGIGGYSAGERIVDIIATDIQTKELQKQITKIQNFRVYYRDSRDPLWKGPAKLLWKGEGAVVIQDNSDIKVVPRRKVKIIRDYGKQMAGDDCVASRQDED

T1 sequence (Q7ZJM1 whole entry): as the sequence (Q7ZJM1 as listed by the source) above

SMILES | IC50 [1] [µM] | IC50 [2] [µM] | EC50 [3] [µM] | IC50 (HOS) [µM] | Ratio IC50 [4]
O=C1c2c(ccc(O)c2O)CN1Cc1c(F)cccc1Cl | > 333 | 18 |  |  | 
O=C1c2ccc(O)c(O)c2C(=O)N1Cc1cccc(Cl)c1 | 14 | 0.4 | 4.2 | 13.3 | 
O=C1c2c(ccc(O)c2O)CN1Cc1ccc(F)c(F)c1 | 72 | 0.9 | 1.08 | 9.01 | 
O=C1c2ccc(O)c(O)c2C(=O)N1Cc1ccccc1F | 68 | 2 |  |  | 
O=C1c2ccc(O)c(O)c2C(=O)N1Cc1c(F)ccc(F)c1Cl | 34 | 4 |  |  | 
O=C1c2ccc(O)c(O)c2C(=O)N1Cc1ccccc1 | 72 | 0.4 | 11.2 |  | 
O=C1c2ccc(O)c(O)c2C(=O)N1Cc1ccc(F)cc1F | 16 | 0.3 |  |  | 
Cc1cc(CN2Cc3ccc(O)c(O)c3C2=O)ccc1F | 17 | 0.9 |  |  | 
O=C1c2ccc(O)c(O)c2C(=O)N1Cc1ccc(F)cc1Cl | 90 | 1.3 |  |  | 
O=C1c2c(ccc(O)c2O)CN1Cc1cc(Cl)ccc1F | 18 | 1.2 |  |  | 
O=C1c2ccc(O)c(O)c2C(=O)N1Cc1cc(F)ccc1F | 60 | 0.23 |  |  | 
O=C1c2c(ccc(O)c2O)CN1Cc1ccc(F)cc1Cl | > 333 | 2.5 |  |  | 700
O=C1c2ccc(O)c(O)c2C(=O)N1Cc1cc(F)c(F)c(F)c1 | 10 | 0.6 |  |  | 
O=C1c2ccc(O)c(O)c2C(=O)N1Cc1cc(F)c(F)cc1F | 54 | 0.5 |  |  | 
O=C1c2ccc(O)c(O)c2C(=O)N1Cc1cccc(Cl)c1F | 25 | 2 | 2.74 | 11.5 | 
O=C1c2ccc(O)c(O)c2C(=O)N1Cc1ccc(Cl)c(F)c1 | 58 | 0.9 |  |  | 
O=C1c2c(ccc(O)c2O)CN1Cc1c(F)ccc(F)c1F | > 333 | 25 |  |  | 
O=C1c2c(ccc(O)c2O)CN1Cc1c(F)ccc(F)c1Cl | > 333 | 8.9 |  |  | 
O=C1c2ccc(O)c(O)c2C(=O)N1Cc1cc(F)cc(F)c1 | 48 | 0.4 |  |  | 
O=C1c2ccc(O)c(O)c2C(=O)N1Cc1ccc(F)c(Br)c1 | 11 | 0.9 |  |  | 
O=C1c2c(ccc(O)c2O)CN1Cc1cc(F)c(F)cc1F | > 333 | 3.7 |  |  | 
O=C1c2c(ccc(O)c2O)CN1Cc1cc(F)ccc1F | > 333 | 27 | 1.24 | 13.4 | 
O=C1c2c(ccc(O)c2O)CN1Cc1c(F)c(F)c(F)c(F)c1F | 230 | 8 |  |  | 
O=C1c2ccc(O)c(O)c2C(=O)N1Cc1ccc(F)c(F)c1F | 18 | 0.8 |  |  | 
O=C1c2c(ccc(O)c2O)CN1Cc1cccc(I)c1 | 169 | 4 | 1.07 | 6.92 | 
Cc1cc(CN2C(=O)c3ccc(O)c(O)c3C2=O)ccc1F | 11 | 0.8 |  |  | 
O=C1c2c(ccc(O)c2O)CN1Cc1ccccc1F | > 333 | 25 |  |  | 
O=C1c2c(ccc(O)c2O)CN1Cc1cc(F)cc(F)c1 | 233 | 0.3 | 2.42 | 17.2 | 

SMILES | IC50 [1] [µM] | IC50 [2] [µM] | EC50 [3] [µM] | IC50 (HOS) [µM] | Ratio IC50 [4]
O=C1c2ccc(O)c(O)c2C(=O)N1Cc1c(F)ccc(F)c1F | 158 | 1.8 |  |  | 
O=C1c2c(ccc(O)c2O)CN1Cc1ccc(F)c(Br)c1 | 34 | 1 |  |  | 
O=C1c2ccc(O)c(O)c2C(=O)N1Cc1ccc(F)c(F)c1 | 27 | 0.1 | 5.88 | 7.94 | 
O=C1c2c(ccc(O)c2O)CN1Cc1ccc(F)cc1F | 37 | 0.5 |  |  | 
O=C1c2ccc(O)c(O)c2C(=O)N1Cc1c(F)c(F)c(F)c(F)c1F | 41 | 1.3 |  |  | 
O=C1c2ccc(O)c(O)c2C(=O)N1Cc1cccc(Br)c1 | 16 | 0.4 | 3.78 | 11.4 | 
O=C1c2c(ccc(O)c2O)CN1Cc1cccc(Cl)c1 | 72 | 4 | 0.54 | 9.02 | 
O=C1c2c(ccc(O)c2O)CN1Cc1cccc(Cl)c1F | 36 | 2 | 0.62 | 9.43 | 
O=C1c2ccc(O)c(O)c2C(=O)N1Cc1ccc(F)cc1 | 8 | 5 | 0.86 |  | 
O=C1c2ccc(O)c(O)c2C(=O)N1Cc1cc(Cl)ccc1F | 9 | 0.31 |  |  | 
O=C1c2c(ccc(O)c2O)CN1Cc1ccc(F)c(Cl)c1 |  |  | 0.48 | 6.87 | 
O=C1c2c(ccc(O)c2O)CN1Cc1cccc(Br)c1 | 264 | 3 | 0.59 | 7.24 | 
O=C1c2ccc(O)c(O)c2C(=O)N1Cc1c(F)cccc1F | 103 | 2 |  |  | 
O=C1c2ccc(O)c(O)c2C(=O)N1Cc1ccc(F)c(Cl)c1 | 14 | 0.17 | 2.83 | 9.54 | 
O=C1c2c(ccc(O)c2O)CN1Cc1ccc(Cl)c(Cl)c1 | 89 | 0.1 | 3.3 | 5.68 | 
O=C1c2c(ccc(O)c2O)CN1Cc1ccc(Cl)c(F)c1 | 97 | 6 |  |  | 
O=C1c2c(ccc(O)c2O)CN1Cc1c(F)cccc1F | 71 | 20 |  |  | 
O=C1c2c(ccc(O)c2O)CN1Cc1ccc(F)c(F)c1F | 153 | 2.7 |  |  | 
O=C1c2c(ccc(O)c2O)CN1Cc1cccc(F)c1F | 72 | 0.7 |  |  | 
O=C1c2ccc(O)c(O)c2C(=O)N1Cc1cccc(I)c1 | 85 | 1 | 7.77 | 12 | 
O=C1c2ccc(O)c(O)c2C(=O)N1Cc1ccc(Cl)c(Cl)c1 | 18 | 0.12 | 2.33 | 4.43 | 
O=C1c2ccc(O)c(O)c2C(=O)N1Cc1cccc(F)c1 | 11 | 0.3 |  |  | 
O=C1c2ccc(O)c(O)c2C(=O)N1Cc1c(F)cccc1Cl | 54 | 3.5 |  |  | 
O=C1c2c(ccc(O)c2O)CN1Cc1cc(Cl)c(F)cc1F | > 333 | 4.4 | 0.65 | 8.38 | 
O=C1c2c(ccc(O)c2O)CN1Cc1cc(F)c(F)c(F)c1 | 99 | 4 |  |  | 
O=C1c2c(ccc(O)c2O)CN1Cc1cccc(F)c1 | 238 | 21 | 1.06 | 8.6 | 
O=C1c2ccc(O)c(O)c2C(=O)N1Cc1cc(Cl)c(F)cc1F | 79 | 0.4 | 4.43 | 13.7 | 
